The structures appear in SMILES notation. pIC50: −log10 of the molar value.

In this experiment the target is T1, human plasma protein factor Xa (Homo sapiens, UniProt P00742).
T1 construct: measure proteolytic activity of the enzyme (factor Xa); purchased Haematologic Technologies (Essex Junction, Vt.); host or cells: human plasma
T1 sequence (P00742 235-488 limits assumed): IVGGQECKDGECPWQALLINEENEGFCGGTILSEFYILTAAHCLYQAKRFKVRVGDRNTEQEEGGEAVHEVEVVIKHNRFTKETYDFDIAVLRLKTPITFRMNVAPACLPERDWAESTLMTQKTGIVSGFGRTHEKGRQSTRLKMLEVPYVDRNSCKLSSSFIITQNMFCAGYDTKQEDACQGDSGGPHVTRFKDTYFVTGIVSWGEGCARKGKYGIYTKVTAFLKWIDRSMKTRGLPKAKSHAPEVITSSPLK
T1 sequence (P00742 41-179 partner limits assumed): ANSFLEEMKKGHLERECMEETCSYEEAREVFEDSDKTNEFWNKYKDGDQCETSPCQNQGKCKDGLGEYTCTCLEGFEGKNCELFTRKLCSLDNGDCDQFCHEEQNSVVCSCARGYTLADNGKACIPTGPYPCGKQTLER
The experiment in a line: Factor Xa IC50 determination: cleavage of paranitroanilide substrate S-2765 in 96-well plates. Conditions: fXa 1 nM, S-2765 100 μM, Tris buffered saline pH 7.4, room temperature. In kind it is biochemical. The method, boiled down: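 Initial rates of S-2765 (100 μM final) cleavage, read at 405 nm for 2 min, fitted with a four-parameter equation to give IC50. Enzyme: 1 nM human plasma fXa, 5 min room-temperature preincubation with inhibitor (0.01 nM–10 μM) in 20 mM Tris, 150 mM NaCl, 5 mM CaCl2, 0.1% BSA, 5% DMSO, pH 7.4; duplicates.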
Take `O=C(NCc1cc(-c2cccc(-c3cccc(CN4CCCC4)c3)c2)no1)c1ccc(Cl)s1` [Example 271, 5-Chloro-thiophene-2-carboxylic acid [3-(3′-pyrrolidin-1-ylmethyl-biphenyl-3-yl)-isoxazol-5-ylmethyl]-amide]: the pIC50 (in general, −log10 of the IC50, conventionally taken in molar units) was ≤ 6.30.
Next, `CN(C)Cc1ccc(-c2cccc(-c3cc(CNC(=O)c4ccc(Cl)s4)on3)c2)cc1` [Example 272, 5-Chloro-thiophene-2-carboxylic acid [3-(4′-dimethylaminomethyl-biphenyl-3-yl)-isoxazol-5-ylmethyl]-amide]: ≤ 6.30; `O=C(NCc1cc(-c2cccc(-c3ccc(CN4CCCC4)cc3)c2)no1)c1ccc(Cl)s1` [Example 273, 5-Chloro-thiophene-2-carboxylic acid [3-(4′-pyrrolidin-1-ylmethyl-biphenyl-3-yl)-isoxazol-5-ylmethyl]-amide]: ≤ 6.30.
Regarding `O=C(NCC1CC(c2cccc(-c3cccnc3)c2)=NO1)c1ccc(Cl)s1` (stereo not shown) [Example 274, 5-Chloro-thiophene-2-carboxylic acid [3-(3-pyridin-3-yl-phenyl)-4,5-dihydro-isoxazol-5-ylmethyl]-amide], the pIC50 is ≤ 6.30.
On to `O=C(NCC1CC(c2cccc(-c3ccncc3)c2)=NO1)c1ccc(Cl)s1` (stereo not shown) [Example 275, 5-Chloro-thiophene-2-carboxylic acid [3-(3-pyridin-4-yl-phenyl)-4,5-dihydro-isoxazol-5-ylmethyl]-amide], for which the pIC50 is ≤ 6.30.
Next, `O=C(NCc1cc(-c2cccc(-c3cccnc3)c2)no1)c1ccc(Cl)s1` [Example 276, 5-Chloro-thiophene-2-carboxylic acid [3-(3-pyridin-3-yl-phenyl)-isoxazol-5-ylmethyl]-amide]: ≤ 6.30; `O=C(NCC1CC(c2ccc(-n3ccccc3=O)cc2)=NO1)c1ccc(Cl)s1` (stereo not shown) [Example 278, 5-Chloro-N-((3-(4-(2-oxopyridin-1(2H)-yl)phenyl)-4,5-dihydroisoxazol-5-yl)methyl)thiophene-2-carboxamide]: ≥ 7.00; `O=C(NCC1CC(c2ccc(-n3cccc(F)c3=O)cc2)=NO1)c1ccc(Cl)s1` (stereo not shown) [Example 279, 5-Chloro-N-((3-(4-(3-fluoro-2-oxopyridin-1(2H)-yl)phenyl)-4,5-dihydroisoxazol-5-yl)methyl)thiophene-2-carboxamide]: ≥ 7.00.
Next, `O=C(NCC1CC(c2ccc(-n3cc(F)ccc3=O)cc2)=NO1)c1ccc(Cl)s1` (stereo not shown) [Example 280, 5-Chloro-N-((3-(4-(5-fluoro-2-oxopyridin-1(2H)-yl)phenyl)-4,5-dihydroisoxazol-5-yl)methyl)thiophene-2-carboxamide]: ≥ 7.00; `Cc1cccn(-c2ccc(C3=NOC(CNC(=O)c4ccc(Cl)s4)C3)cc2)c1=O` (stereo not shown) [Example 281, 5-Chloro-N-((3-(4-(3-methyl-2-oxopyridin-1(2H)-yl)phenyl)-4,5-dihydroisoxazol-5-yl)methyl)thiophene-2-carboxamide]: ≥ 7.00.
Next, `COc1cccn(-c2ccc(C3=NOC(CNC(=O)c4ccc(Cl)s4)C3)cc2)c1=O` (stereo not shown) [Example 282, 5-Chloro-N-((3-(4-(3-methoxy-2-oxopyridin-1(2H)-yl)phenyl)-4,5-dihydroisoxazol-5-yl)methyl)thiophene-2-carboxamide]: ≥ 7.00; `O=C(NCC1CC(c2ccc(-n3cccc(Cl)c3=O)cc2)=NO1)c1ccc(Cl)s1` (stereo not shown) [Example 283, 5-Chloro-N-((3-(4-(3-chloro-2-oxopyridin-1(2H)-yl)phenyl)-4,5-dihydroisoxazol-5-yl)methyl)thiophene-2-carboxamide]: ≥ 7.00.
`Cc1ccn(-c2ccc(C3=NOC(CNC(=O)c4ccc(Cl)s4)C3)cc2)c(=O)c1` (stereo not shown) [Example 284, 5-Chloro-N-((3-(4-(4-methyl-2-oxopyridin-1(2H)-yl)phenyl)-4,5-dihydroisoxazol-5-yl)methyl)thiophene-2-carboxamide]: the pIC50 was ≥ 7.00.

The record behind these values is patent US8377974B2 (Millennium Pharmaceuticals, Inc., priority 2004, dated 2013).
